What all share (assay type): cell-based
For one assay, the target named is NK1 (Homo sapiens, UniProt P25103). In words: Signal transduction (ST), intracellular Ca++ (FLIPR), NK1 antagonistic activity. Particulars: read-out: pIC50 NK1 (converted). The procedure, abridged:
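Confluent cells loaded with 2 μM Fluo3 (1 h, 37 °C, probenecid), preincubated 20 min at RT with antagonist concentration range, then agonist added. Peak Ca++ transient read by FLIPR in Krebs buffer pH 7.4; IC50 by non-linear regression.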

The next assay addresses T1, NK2 (Homo sapiens, UniProt P21452).
T1 sequence (P21452 1-398): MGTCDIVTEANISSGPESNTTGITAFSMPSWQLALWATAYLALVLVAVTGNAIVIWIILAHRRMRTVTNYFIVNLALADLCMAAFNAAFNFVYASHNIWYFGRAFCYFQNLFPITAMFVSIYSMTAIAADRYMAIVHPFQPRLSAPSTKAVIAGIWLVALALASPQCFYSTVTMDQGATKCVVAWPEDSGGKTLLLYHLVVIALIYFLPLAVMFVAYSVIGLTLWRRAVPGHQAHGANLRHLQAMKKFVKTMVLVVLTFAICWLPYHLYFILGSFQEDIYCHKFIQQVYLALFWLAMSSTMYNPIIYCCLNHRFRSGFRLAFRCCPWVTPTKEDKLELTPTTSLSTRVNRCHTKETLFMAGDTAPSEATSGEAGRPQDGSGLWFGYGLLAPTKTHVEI
In words: Signal transduction (ST), intracellular Ca++ (FLIPR), NK2. To be noted: read-out: pIC50 NK2 (converted).

The target of a further assay is T2, NK3 (Homo sapiens, UniProt P29371).
T2 sequence (P29371 1-465): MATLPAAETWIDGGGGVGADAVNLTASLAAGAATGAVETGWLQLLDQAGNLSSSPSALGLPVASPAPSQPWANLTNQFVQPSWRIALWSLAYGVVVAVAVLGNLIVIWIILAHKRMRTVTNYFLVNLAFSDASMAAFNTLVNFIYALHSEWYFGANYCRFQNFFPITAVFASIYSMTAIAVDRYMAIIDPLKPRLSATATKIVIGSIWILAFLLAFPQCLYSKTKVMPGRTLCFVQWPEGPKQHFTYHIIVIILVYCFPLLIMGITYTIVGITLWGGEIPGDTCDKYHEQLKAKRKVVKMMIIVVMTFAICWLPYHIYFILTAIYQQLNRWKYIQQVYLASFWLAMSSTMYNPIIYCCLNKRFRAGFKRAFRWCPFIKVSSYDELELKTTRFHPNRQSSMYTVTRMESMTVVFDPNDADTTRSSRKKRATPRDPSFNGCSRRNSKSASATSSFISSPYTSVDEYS
Description: Signal transduction (ST), intracellular Ca++ (FLIPR), NK3. To be noted: read-out: pIC50 NK3 (converted).

Results on 25 compounds are retold here after US7795261B2, “Substituted 1-piperidin-4-yl-4-pyrrolidin-3-yl-piperazine derivatives and their use as neurokinin antagonists” (Janssen Pharmaceutica NV, priority 2002, dated 2010).

The structures appear in SMILES notation.

Sequence of NK1 (P25103 whole entry): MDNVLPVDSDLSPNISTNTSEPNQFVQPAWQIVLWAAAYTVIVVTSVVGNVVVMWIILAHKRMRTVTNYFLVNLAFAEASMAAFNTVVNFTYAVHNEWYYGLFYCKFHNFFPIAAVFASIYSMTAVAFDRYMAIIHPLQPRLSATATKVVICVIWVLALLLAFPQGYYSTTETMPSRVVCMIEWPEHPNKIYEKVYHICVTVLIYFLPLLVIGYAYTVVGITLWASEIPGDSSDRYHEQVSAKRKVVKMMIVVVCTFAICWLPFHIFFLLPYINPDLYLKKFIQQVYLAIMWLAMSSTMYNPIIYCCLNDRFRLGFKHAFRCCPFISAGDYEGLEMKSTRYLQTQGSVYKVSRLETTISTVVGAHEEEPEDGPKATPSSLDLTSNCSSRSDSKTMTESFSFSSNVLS

As for `O=C(C(=O)N1CCC(N2CCN(C3CCN(C(=O)c4cc(C(F)(F)F)cc(C(F)(F)F)c4)C(Cc4ccccc4)C3)CC2)C1)c1ccco1` (stereo not drawn) [Compound 64], the IC50 is 50.1 nM at NK1, 2510 nM on NK2 and 158 nM at NK3.
Taken in the same sequence, the figures for `Cn1cnc(C(=O)N2CCC(N3CCN([C@H]4CCN(C(=O)c5cc(C(F)(F)F)cc(C(F)(F)F)c5)[C@H](Cc5ccccc5)C4)CC3)C2)c1` (stereo partly drawn) [Compound 282] were 12.6 nM, 3980 nM and 3980 nM.
The matching figures for `CC(C(=O)N1CCC(N2CCN([C@H]3CCN(C(=O)c4cc(C(F)(F)F)cc(C(F)(F)F)c4)[C@H](Cc4ccccc4)C3)CC2)C1)c1ccccc1` (stereo partly drawn) [Compound 69]: 12.6 nM, 631 nM and 501 nM.
The matching figures for `Cn1cccc1C(=O)N1CCC(N2CCN(C3CCN(C(=O)c4cc(C(F)(F)F)cc(C(F)(F)F)c4)C(Cc4ccc(F)c(F)c4)C3)CC2)C1` (single isomer, unassigned) [Compound 367]: 10 nM, 1260 nM and 1580 nM.
For the compound `O=C(C1CCOC1)N1CCC(N2CCN(C3CCN(C(=O)c4cc(C(F)(F)F)cc(C(F)(F)F)c4)C(Cc4ccc(F)c(F)c4)C3)CC2)C1` (single isomer, unassigned) [Compound 269], the IC50 is 3.98 nM on NK1, 2510 nM at NK2 and 6310 nM on NK3.
The matching figures for `COc1ccc(S(=O)(=O)N2CCC(N3CCN([C@H]4CCN(C(=O)c5cc(C(F)(F)F)cc(C(F)(F)F)c5)[C@H](Cc5ccccc5)C4)CC3)C2)cc1OC` (stereo partly drawn) [Compound 378]: 12.6 nM, 1580 nM and 2000 nM.
The matching figures for `O=C(c1cnccn1)N1CCC(N2CCN([C@H]3CCN(C(=O)c4cc(C(F)(F)F)cc(C(F)(F)F)c4)[C@H](Cc4ccccc4)C3)CC2)C1` (stereo partly drawn) [Compound 30]: 31.6 nM, 3980 nM and 1000 nM.
Taken in the same sequence, the figures for `Cc1cc(C(=O)N2CCC(N3CCN([C@H]4CCN(C(=O)c5cc(C(F)(F)F)cc(C(F)(F)F)c5)[C@H](Cc5ccccc5)C4)CC3)C2)n(C(C)(C)C)n1` (stereo partly drawn) [Compound 27] were 15.8 nM, 631 nM and 316 nM.
In the case of `O=C(c1cn[nH]c1)N1CCC(N2CCN([C@H]3CCN(C(=O)c4cc(C(F)(F)F)cc(C(F)(F)F)c4)[C@H](Cc4ccccc4)C3)CC2)C1` (stereo partly drawn) [Compound 25], the IC50 at NK1 is 20 nM; at NK2 it was 5010 nM; on NK3 it was 5010 nM.
For `CC1(C)OCC(CNC(=NC#N)N2CCC(N3CCN(C4CCN(C(=O)c5cc(C(F)(F)F)cc(C(F)(F)F)c5)C(Cc5ccccc5)C4)CC3)C2)O1` (stereo not drawn) [Compound 370], the IC50 on NK1 is 20 nM; on NK2, 6310 nM; at NK3 it was 7940 nM.
Taken in the same sequence, the figures for `Cc1cccc(C(=O)N2CCC(N3CCN([C@H]4CCN(C(=O)c5cc(C(F)(F)F)cc(C(F)(F)F)c5)[C@H](Cc5ccccc5)C4)CC3)C2)c1C` (stereo partly drawn) [Compound 19] were 39.8 nM, 7940 nM and 398 nM.
The matching figures for `COc1ccc(Cl)cc1S(=O)(=O)N1CCC(N2CCN([C@H]3CCN(C(=O)c4cc(C(F)(F)F)cc(C(F)(F)F)c4)[C@H](Cc4ccccc4)C3)CC2)C1` (stereo partly drawn) [Compound 412]: 79.4 nM, 2510 nM and 5010 nM.
Taken in the same sequence, the figures for `COC(=O)c1sccc1S(=O)(=O)N1CCC(N2CCN([C@H]3CCN(C(=O)c4cc(C(F)(F)F)cc(C(F)(F)F)c4)[C@H](Cc4ccccc4)C3)CC2)C1` (stereo partly drawn) [Compound 77] were 20 nM, 2510 nM and 501 nM.
`O=C(c1ccccc1Cl)N1CCC(N2CCN(C3CCN(C(=O)c4cc(C(F)(F)F)cc(C(F)(F)F)c4)C(Cc4ccc(F)c(F)c4)C3)CC2)C1` (single isomer, unassigned) [Compound 211]: the IC50 at NK1 is 6.31 nM; on NK2, 1000 nM; at NK3, 200 nM.
The matching figures for `O=C(c1cc(C(F)(F)F)cc(C(F)(F)F)c1)N1CC[C@H](N2CCN(C3CCN(S(=O)(=O)c4ccc(O)cc4)C3)CC2)C[C@H]1Cc1ccccc1` (stereo partly drawn) [Compound 303]: 6.31 nM, 631 nM and 3160 nM.
The matching figures for `O=C(C1CCOC1)N1CCC(N2CCN(C3CCN(C(=O)c4cc(C(F)(F)F)cc(C(F)(F)F)c4)C(Cc4ccccc4)C3)CC2)C1` (single isomer, unassigned) [Compound 216]: 10 nM, 5010 nM and 1580 nM.
Take `O=C(c1ccsc1)N1CC[C@H](N2CCN([C@@H]3CCN(C(=O)c4cc(C(F)(F)F)cc(C(F)(F)F)c4)[C@@H](Cc4ccc(Cl)c(Cl)c4)C3)CC2)C1` [Compound 251]: the IC50 at NK1 is 50.1 nM; on NK2 it was 6310 nM; at NK3 it was 5010 nM.
The matching figures for `O=C(c1c(Cl)cccc1Cl)N1CCC(N2CCN(C3CCN(C(=O)c4cc(C(F)(F)F)cc(C(F)(F)F)c4)C(Cc4ccc(F)c(F)c4)C3)CC2)C1` (single isomer, unassigned) [Compound 239]: 10 nM, 1000 nM and 251 nM.
Taken in the same sequence, the figures for `O=C(c1cccs1)N1CCC(N2CCN(C3CCN(C(=O)c4cc(C(F)(F)F)cc(C(F)(F)F)c4)C(Cc4ccc(Cl)c(Cl)c4)C3)CC2)C1` (stereo not drawn) [Compound 175] were 25.1 nM, 1000 nM and 398 nM.
Taken in the same sequence, the figures for `O=C(c1ccsc1)N1CCC(N2CCN(C3CCN(C(=O)c4cc(C(F)(F)F)cc(C(F)(F)F)c4)C(Cc4ccc(F)c(F)c4)C3)CC2)C1` (single isomer, unassigned) [Compound 238] were 6.31 nM, 1260 nM and 158 nM.
For `CC(C(=O)N1CCC(N2CCN(C3CCN(C(=O)c4cc(C(F)(F)F)cc(C(F)(F)F)c4)C(Cc4ccc(Cl)c(Cl)c4)C3)CC2)C1)c1ccccc1` (stereo not drawn) [Compound 176], the IC50 at NK1 was 20 nM; at NK2, 2510 nM; on NK3, 1000 nM.
Taken in the same sequence, the figures for `O=C(c1ccsc1)N1CCC(N2CCN(C3CCN(C(=O)c4cc(C(F)(F)F)cc(C(F)(F)F)c4)C(Cc4ccc(F)c(F)c4)C3)CC2)C1` (single isomer, unassigned) [Compound 257] were 10 nM, 316 nM and 631 nM.
The matching figures for `O=C(c1ccccc1Cl)N1CCC(N2CCN([C@H]3CCN(C(=O)c4cc(C(F)(F)F)cc(C(F)(F)F)c4)[C@H](Cc4ccccc4)C3)CC2)C1` (stereo partly drawn) [Compound 17]: 15.8 nM, 7940 nM and 251 nM.
The matching figures for `Cc1ccccc1C(=O)N1CCC(N2CCN([C@H]3CCN(C(=O)c4cc(C(F)(F)F)cc(C(F)(F)F)c4)[C@H](Cc4ccccc4)C3)CC2)C1` (stereo partly drawn) [Compound 13]: 25.1 nM, 3980 nM and 200 nM.
Regarding `O=C(C1CCOC1)N1CCC(N2CCN(C3CCN(C(=O)c4cc(C(F)(F)F)cc(C(F)(F)F)c4)C(Cc4ccc(Cl)c(Cl)c4)C3)CC2)C1` (stereo not drawn) [Compound 172], the IC50 is 7.94 nM at NK1, 794 nM on NK2 and 398 nM on NK3.
